Laboratory results taken from article doi:10.1101/2022.02.04.479214v1 (biorxiv, 2022).

Tests used:
Experiment in all cases: CYP activity inhibition in microsomes
Format in all cases: biochemical
Details in all cases: microsomes with NADPH; direct inhibition
CYP2D6 = CYP2D6 (Homo sapiens, UniProt P10635)
CYP2C19 = CYP2C19 (Homo sapiens, UniProt P33261)
CYP2C9 = CYP2C9 (Homo sapiens, UniProt P11712)
CYP1A2 = target: T1, CYP1A2 (Homo sapiens, UniProt P05177)
T1 sequence (P05177 2-516): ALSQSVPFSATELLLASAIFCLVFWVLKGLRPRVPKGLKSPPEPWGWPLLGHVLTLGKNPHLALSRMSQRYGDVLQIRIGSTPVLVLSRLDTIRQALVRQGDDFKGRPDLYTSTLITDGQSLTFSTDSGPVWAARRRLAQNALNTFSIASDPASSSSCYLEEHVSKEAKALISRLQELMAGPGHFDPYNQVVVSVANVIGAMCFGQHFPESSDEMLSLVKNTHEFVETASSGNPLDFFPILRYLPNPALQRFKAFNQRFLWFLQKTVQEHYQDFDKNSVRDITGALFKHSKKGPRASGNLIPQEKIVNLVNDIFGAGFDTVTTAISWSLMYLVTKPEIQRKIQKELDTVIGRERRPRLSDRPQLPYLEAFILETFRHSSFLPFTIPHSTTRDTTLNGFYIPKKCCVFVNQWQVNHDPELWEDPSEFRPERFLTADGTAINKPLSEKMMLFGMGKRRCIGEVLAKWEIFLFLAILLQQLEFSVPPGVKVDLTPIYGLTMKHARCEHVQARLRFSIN

CYP3A4 = CYP3A4 (Homo sapiens, UniProt P08684)

Measured: IC50

Chain of CYP2C9 (P11712 whole entry): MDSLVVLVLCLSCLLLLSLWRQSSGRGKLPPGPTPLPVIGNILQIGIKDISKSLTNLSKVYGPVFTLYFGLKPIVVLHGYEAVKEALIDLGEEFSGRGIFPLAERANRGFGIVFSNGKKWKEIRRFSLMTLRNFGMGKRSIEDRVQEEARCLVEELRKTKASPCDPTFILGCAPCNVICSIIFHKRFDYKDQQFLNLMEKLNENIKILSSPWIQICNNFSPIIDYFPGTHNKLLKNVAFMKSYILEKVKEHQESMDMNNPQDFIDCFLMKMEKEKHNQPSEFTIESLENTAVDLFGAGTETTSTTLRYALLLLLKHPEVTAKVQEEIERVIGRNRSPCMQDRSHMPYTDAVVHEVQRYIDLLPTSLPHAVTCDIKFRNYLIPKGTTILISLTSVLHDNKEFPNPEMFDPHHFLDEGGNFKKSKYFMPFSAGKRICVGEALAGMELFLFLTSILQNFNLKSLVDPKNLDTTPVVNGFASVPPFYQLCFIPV
Chain of CYP2C19 (P33261 whole entry): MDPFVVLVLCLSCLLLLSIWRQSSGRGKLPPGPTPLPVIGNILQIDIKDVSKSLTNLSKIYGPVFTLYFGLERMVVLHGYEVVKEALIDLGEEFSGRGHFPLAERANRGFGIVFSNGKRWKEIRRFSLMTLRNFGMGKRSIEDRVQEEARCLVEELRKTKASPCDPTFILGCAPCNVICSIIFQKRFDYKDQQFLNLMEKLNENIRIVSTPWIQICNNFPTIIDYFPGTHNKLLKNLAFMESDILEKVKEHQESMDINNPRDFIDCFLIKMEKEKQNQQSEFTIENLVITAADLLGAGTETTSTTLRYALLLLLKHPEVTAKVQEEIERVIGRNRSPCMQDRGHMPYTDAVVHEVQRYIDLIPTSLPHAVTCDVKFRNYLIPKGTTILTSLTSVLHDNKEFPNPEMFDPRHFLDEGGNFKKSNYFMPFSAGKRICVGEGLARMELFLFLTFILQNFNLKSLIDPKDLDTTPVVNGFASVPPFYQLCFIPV
Chain of CYP3A4 (P08684 2-503): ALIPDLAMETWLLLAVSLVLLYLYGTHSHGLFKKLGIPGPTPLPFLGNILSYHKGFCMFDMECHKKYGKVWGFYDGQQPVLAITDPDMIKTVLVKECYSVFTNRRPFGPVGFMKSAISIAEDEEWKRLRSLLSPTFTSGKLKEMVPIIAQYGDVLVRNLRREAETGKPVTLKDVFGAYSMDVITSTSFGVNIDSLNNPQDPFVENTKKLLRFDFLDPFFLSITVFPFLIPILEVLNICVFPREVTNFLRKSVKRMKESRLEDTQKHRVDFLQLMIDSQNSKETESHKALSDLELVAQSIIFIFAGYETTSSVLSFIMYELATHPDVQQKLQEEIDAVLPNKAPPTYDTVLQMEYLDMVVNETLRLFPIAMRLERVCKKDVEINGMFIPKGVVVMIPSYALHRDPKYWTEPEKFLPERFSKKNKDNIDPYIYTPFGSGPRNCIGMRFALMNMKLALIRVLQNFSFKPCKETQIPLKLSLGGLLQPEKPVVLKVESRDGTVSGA
Chain of CYP2D6 (P10635 whole entry): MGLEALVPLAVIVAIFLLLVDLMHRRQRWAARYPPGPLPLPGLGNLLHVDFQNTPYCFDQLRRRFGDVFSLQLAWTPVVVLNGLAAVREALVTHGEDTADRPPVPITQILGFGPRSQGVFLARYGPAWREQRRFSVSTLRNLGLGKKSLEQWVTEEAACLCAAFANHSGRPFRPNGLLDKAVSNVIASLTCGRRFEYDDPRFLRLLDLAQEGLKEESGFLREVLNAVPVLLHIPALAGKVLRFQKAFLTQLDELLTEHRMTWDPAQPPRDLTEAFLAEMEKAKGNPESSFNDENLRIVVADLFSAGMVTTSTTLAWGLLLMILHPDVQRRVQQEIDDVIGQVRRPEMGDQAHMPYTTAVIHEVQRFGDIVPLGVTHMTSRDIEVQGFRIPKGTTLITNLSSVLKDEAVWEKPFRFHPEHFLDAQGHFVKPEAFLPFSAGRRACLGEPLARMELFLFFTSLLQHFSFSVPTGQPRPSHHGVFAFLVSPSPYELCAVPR

Cc1cccc(OC2CCN(Cc3cc(=O)[nH]c(=O)[nH]3)CC2)c1C [GSK2556286]
> 25 µM: all assays above
